Tested on: HepG2 cell lines
Experiment: cytotoxicity studies on HepG2 cell lines
Format: cell-based
Conditions: xylitol crystals recovered from fermentation broth

## OC[C@@H](O)[C@H](O)[C@@H](O)CO [Xylitol crystals, xylitol]
  toxic effect on HepG2 cell lines (cytotoxicity studies): no toxic effect
